Measured values: US9604968B2, “Pure crystalline Form II of L-malic acid salt of sunitinib and processes for its preparation” (RANBAXY LABORATORIES LIMITED, priority 2013, dated 2017)

What was measured:
[1] = Storage stability: chromatographic purity (HPLC) of crystalline Form II on storage; type: physicochemical; details: for Chromatographic Purity (1M storage at 25° C. ± 2° C./60% ± 5% RH) / Chromatographic Purity after 1M storage (at 25° C.±2° C./60%±5% RH) / Chromatographic Purity (1M storage at 40° C. ± 2° C./75% ± 5% RH) / Chromatographic Purity after 1M storage (at 40° C.±2° C./75%±5% RH): 1 month storage; for Chromatographic Purity (Initial): before storage
Excerpt: In an embodiment of the first aspect, the pure crystalline Form II of the L-malic acid salt of sunitinib has a purity of not less than 97.0% as measured by a chromatographic technique such as High-Performance Liquid Chromatography (HPLC).
Table 1 below compares the chromatographic purity of crystalline Form II of an L-malic acid salt of sunitinib prepared without using an anti-oxidant (as per Example 8), and pure crystalline Form II of an L-malic acid salt of sunitinib prepared using an anti-oxidant (as per Examples 1, 2, and 4), on storage at 25° C.±2° C. and 40° C.±2° C. at a relative humidity of 60%±5% and 75%±5%, respectively, for 1 month and above.

[2] = cited from earlier work

Row | SMILES | Chromatographic Purity (1M storage at 25° C. ± 2° C./60% ± 5% RH) ([1]; 25° C.±2° C., 60%±5% RH) | Chromatographic Purity after 1M storage (at 25° C.±2° C./60%±5% RH) ([1]; 25° C.±2° C., 60%±5% RH) | Chromatographic Purity (1M storage at 40° C. ± 2° C./75% ± 5% RH) ([1]; 40° C.±2° C., 75%±5% RH) | Chromatographic Purity after 1M storage (at 40° C.±2° C./75%±5% RH) ([1]; 40° C.±2° C., 75%±5% RH) | Chromatographic Purity (Initial) [1] | Chromatographic Purity (Initial) ([1]; example text) | Chromatographic Purity (1M storage at 25° C. ± 2° C./60% ± 5% RH) ([1]; 25° C. ± 2° C., 60% ± 5% RH, listed as Example 8) | Chromatographic Purity (1M storage at 40° C. ± 2° C./75% ± 5% RH) ([1]; 40° C. ± 2° C., 75% ± 5% RH, listed as Example 8) | Chromatographic Purity (Initial) ([1]; listed as Example 8) | hygroscopicity ([2]; disclosed in WO 2009/104021) | form conversion and moisture absorption on storage ([2]; disclosed in WO 2011/061613)
1 | CCN(CC)CCNC(=O)c1c(C)[nH]c(/C=C2\C(=O)Nc3ccc(F)cc32)c1C.O=C(O)C[C@H](O)C(=O)O [Example 1, butanedioic acid, hydroxy-, (2S)-, compound with N-[2-(diethylamino)ethyl]-5-[(Z)-(5-fluoro-1,2-dihydro-2-oxo-3H-indol-3-ylidine)methyl]-2,4-dimethyl-1H-pyrrole-3-carboxamide (1:1)] | 98.4% w/w | 98.4% | 97.0% w/w | 97.0% | 99.1% w/w | 99.10% | – | – | – | – | –
2 | CCN(CC)CCNC(=O)c1c(C)[nH]c(/C=C2\C(=O)Nc3ccc(F)cc32)c1C.O=C(O)C[C@H](O)C(=O)O [Example 2, butanedioic acid, hydroxy-, (2S)-, compound with N-[2-(diethylamino)ethyl]-5-[(Z)-(5-fluoro-1,2-dihydro-2-oxo-3H-indol-3-ylidine)methyl]-2,4-dimethyl-1H-pyrrole-3-carboxamide (1:1)] | 98.7% w/w | 98.7% | 97.3% w/w | 97.3% | 99.7% w/w | 99.70% | – | – | – | – | –
3 | CCN(CC)CCNC(=O)c1c(C)[nH]c(/C=C2\C(=O)Nc3ccc(F)cc32)c1C.O=C(O)C[C@H](O)C(=O)O [Example 4, butanedioic acid, hydroxy-, (2S)-, compound with N-[2-(diethylamino)ethyl]-5-[(Z)-(5-fluoro-1,2-dihydro-2-oxo-3H-indol-3-ylidine)methyl]-2,4-dimethyl-1H-pyrrole-3-carboxamide (1:1)] | 99.7% w/w | 99.70% | 99.3% w/w | 99.3% | 99.7% w/w | 99.70% | – | – | – | – | –
4 | CCN(CC)CCNC(=O)c1c(C)[nH]c(/C=C2\C(=O)Nc3ccc(F)cc32)c1C.O=C(O)C[C@H](O)C(=O)O [Example 7, butanedioic acid, hydroxy-, (2S)-, compound with N-[2-(diethylamino)ethyl]-5-[(Z)-(5-fluoro-1,2-dihydro-2-oxo-3H-indol-3-ylidine)methyl]-2,4-dimethyl-1H-pyrrole-3-carboxamide (1:1)] | – | 87.4% | – | 87.8% | – | 99.50% | 87.4% w/w | 87.8% w/w | 99.5% w/w | – | –
5 | CCN(CC)CCNC(=O)c1c(C)[nH]c(/C=C2\C(=O)Nc3ccc(F)cc32)c1C.O=C(O)C[C@H](O)C(=O)O [Form II of sunitinib L-malate] | – | – | – | – | – | – | – | – | – | hygroscopic | –
6 | CCN(CC)CCNC(=O)c1c(C)[nH]c(/C=C2\C(=O)Nc3ccc(F)cc32)c1C.O=C(O)C[C@H](O)C(=O)O [stable crystalline Form II] | – | – | – | – | – | – | – | – | – | – | does not convert to any other form or absorb moisture on storage
